Measurements taken from US20260327264A1, “PEPTIDE INHIBITORS OF INTERLEUKIN-23 RECEPTOR” (Zealand Pharma A/S, priority 2023, published 2026).
Like-named read-outs stand apart in the source and are kept apart here. *1 amine or outer side, *2 acyl side, *3 side chain or, on linkers, in order; H or OH if unused. Where a SMILES comes first, the peptide text is derived from it. Bridges are numbered along the chain shown (N, C = ends). [ ]: non-standard residue; d: D form. The star is where a group is joined. 2Nal = N[C@@H](Cc1ccc2ccccc2c1)C(=O)O; AEF = NCCOc1ccc(C[C@H](N)C(=O)O)cc1; X1 = O=C(Cc1ccc(CN[*:1])cc1)[*:2]; 3Pal = N[C@@H](Cc1cccnc1)C(=O)O; αMeL = CC(C)C[C@](C)(N)C(=O)O; CH2COCH2 = O=C(C[*:1])C[*:2]; 3Amb = NCc1cccc(C(=O)O)c1; Pyrrolidide = C1CCN(*)C1; Dab = NCC[C@H](N)C(=O)O

Columns and labels:
human IL-23R = target: T1, human IL-23R (Homo sapiens, UniProt Q5VWK5); experiment: Binding assay: displacement of fluorophore (TAMRA)-labelled reference compound from human IL-23R (BRET, Nluc-IL23R fusion protein membranes); conditions: for Emax: read-out: % displacement (hIL-23R binding)
T1 construct: Nanoluc luciferase (Nluc); secretion signal encoded by the plasmid (not specified); expressed in transfected cells; crude membranes used in the assay
T1 sequence (Q5VWK5 22-629): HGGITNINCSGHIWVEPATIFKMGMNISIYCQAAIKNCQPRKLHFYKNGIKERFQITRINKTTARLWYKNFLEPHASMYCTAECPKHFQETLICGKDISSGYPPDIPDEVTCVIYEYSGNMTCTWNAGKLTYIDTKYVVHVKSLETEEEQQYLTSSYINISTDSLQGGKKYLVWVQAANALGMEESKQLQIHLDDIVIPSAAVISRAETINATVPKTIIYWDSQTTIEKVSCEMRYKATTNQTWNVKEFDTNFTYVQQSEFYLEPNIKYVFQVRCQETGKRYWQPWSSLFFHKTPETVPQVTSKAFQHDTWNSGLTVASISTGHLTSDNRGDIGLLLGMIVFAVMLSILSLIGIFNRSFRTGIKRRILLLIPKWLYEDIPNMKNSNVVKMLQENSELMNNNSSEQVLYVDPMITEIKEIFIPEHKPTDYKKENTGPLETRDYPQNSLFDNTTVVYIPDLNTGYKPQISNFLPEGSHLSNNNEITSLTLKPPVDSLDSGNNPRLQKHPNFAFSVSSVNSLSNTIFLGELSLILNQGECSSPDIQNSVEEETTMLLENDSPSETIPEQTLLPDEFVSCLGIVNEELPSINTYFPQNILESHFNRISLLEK
Text: The assay principle relies on Bioluminescence Resonance Energy Transfer (BRET) between a fluorophore-labelled reference compound binding to the IL-23R part of a fusion protein consisting of the IL-23R fused to a Nanoluc luciferase enzyme (Nanoluc). The Nanoluc is placed in the N-terminus in close proximity to the binding domain of the ligand. Upon close proximity between the fluorophore of the fluorophore-labelled compound and the Nanoluc of the fusion protein, bioluminescence energy generated from conversion of a Nanoluc substrate, is transferred to the fluorophore resulting in an increase in BRET. In presence of an unlabelled compound, the unlabelled compound displaces the fluorophore-labelled peptide from its binding site resulting in a decrease in BRET. The concentration for which half of the fluorophore-labelled peptide is displaced by the unlabelled compound depends on the affinity of the compound for the IL-23R, and is termed the IC50 concentration.
The plasmid also contained a gene to confer resistance for the antibiotic hygromycin. A cell line stably expressing the Nluc-IL23R fusion protein was generated by transfection of HEK293 cells with the expression plasmid and selected with hygromycin for 3 weeks in Growth medium consisting of DMEM w/Glutamax-I containing, 10% V/V FBS, 1% V/V P/S, 1 mM Sodium Pyruvate, and 1× NEAA, and 0.3 mg/mL hygromycin. The remaining cells were propagated and considered a stable expressing Nluc-IL23R fusion protein pool clone.
Cells expressing the Nluc-IL23R fusion protein were expanded in Growth medium and membranes prepared by homogenization of a cell pellet from 18 T175 flasks (4° C. in subsequent steps). The cell pellet was lysed Tris 10 mM, 7.5, 1 mM EDTA and protease inhibitors (Complete, Roche) and homogenized using a 15 mL glass-dounce by 50 strokes. The homogenate was spun at spin @1500 rpm for 10 min, the supernatant transferred to SV-34 tubes and spun at 40000 g for 20 min at 4° C. to pellet the crude membranes. The supernatant was then removed, the pellet resuspended in 5 mL buffer containing 50 mM HEPES pH 7.4, 5 mM EGTA, and 5 mM MgCl2, and homogenized. Aliquots of the resuspended and homogenized membranes containing the Nluc-IL23R fusion protein were stored at −80° C. until use.
The plate was sealed with light impermeable plate seals, and incubated on an orbital shaker 400 rpm for 2 hours at room temperature. To determine the BRET ratio, the plate seal was removed and 25 μL of the Nanoluc substrate (Promega N1572) diluted 1:500 was added to each well and incubated for 1-2 minutes on an orbital shaker at 400 rpm. […] The BRET ratio was calculated as the fluorescence from the TAMRA/nanoluc bioluminescence.
Compound potency (IC50) and maximal displacement (% displacement) were estimated by computer-aided curve fitting using a 4-parameter logistic (4PL) non-linear model. The IC50 and maximal for each compound was determined by computer-aided curve fitting using a 4-parameter logistic (4PL) non-linear model.

[1] = test system: IL-23 mediated STAT3 signalling (DB cells); experiment: Functional inhibition of IL-23 mediated STAT3 signalling (phospho-STAT3 Tyr705) in DB cells; type: cell-based, human; conditions: for hIL-23 (pSTAT3) antagonist % inhibition: Table 3-2, maximal inhibitory response, EC80 of hIL-23
Text: Upon binding of IL-23, the IL-23R forms a heterodimer signalling complex together with IL-12R β1, which through the JAK2/STAT3 pathway promotes phosphorylation of STAT3 to form phospho-STAT3.
For compounds tested in this assay, the response was normalized relative to control values to calculate the IC50 and maximal inhibitory response from a concentration response curve of the compound in presence of a fixed concentration of human IL-23.
The assay procedure was as follows. […] Following preincubation of the DB cells with inhibitor for 15 min in a cell incubator (37° C., 5% CO2), 20 μL of the prepared 3× the EC80 of hIL-23 solution was added to each well and incubated for 90 min in a cell incubator (37° C., 5% CO2). For some wells buffer only or IL-23 only corresponding to the EC80 was added to obtain readouts needed for normalization. To terminate the assay, the plate was spun at 1000 G for 5 min to pellet cells, the supernatant removed using an 8-channel manual pipette, and then added 50 μL/well Complete Lysis Buffer from the MSD STAT3 kit (Cat #K150SVD, Mesoscale) to the cell pellet. To completely lyse cells to release phospho-STAT3 for detection, the plate was shaken for 10 min at room temperature (500 rpm) sealed with aluminium foil and placed at −80° C. for a minimum of 15 min. Detection of the phospho-STAT3 level in the cell lysate from the individual wells was determined using the MSD STAT3 kit (Cat #K150SVD, Mesoscale) and read on a Meso QuickPlex SQ 120 plate reader (Mesoscale).
For data analysis raw data counts from the Meso QuickPlex SQ 120 plate reader were normalized relative to the response by the EC80 of hIL-23 alone (no compound added) and the buffer level.

[2] = Table 3-2, EC80 of hIL-23, read-out: hIL-23 (pSTAT3) antagonist IC50

IC50 (human IL-23R) [nM]	Emax (human IL-23R) [%]	IC50 [1, 2] [nM]	IC50 ([1]; EC80 of hIL-23, read-out: IC50 (pSTAT3)) [nM]	Structure (SMILES)	hIL-23 (pSTAT3) antagonist % inhibition [1] [%]
1.2	105	42	–	CC(C)C[C@]1(C)NC(=O)[C@H](Cc2ccc3ccccc3c2)NC(=O)[C@H](Cc2ccc(OCCN)cc2)NC(=O)[C@@H]2CCNC(=O)CC[C@H](NC(=O)[C@H](CO)NC(=O)Cc3ccc(cc3)CNC(=O)CC[C@@H](C(=O)N[C@@H](CCN)C(N)=O)NC1=O)C(=O)N[C@@H](Cc1c[nH]c3ccccc13)C(=O)N[C@@H](CCC(=O)N1CCCC1)C(=O)N2 [Ref 146, [4-Aminomethyl-phenylacetyl](1c)*SE(2c)W[Q(pyrrolidin)][Dab](2c)[Y(2-aminoethoxy)][2-Nal][2-Me-Leu]E(1c)[Dab]-[NH2], reference compound] ([X1]SEWE(Pyrrolidide)[Dab][AEF][2Nal][αMeL]E[Dab]-NH2; lactam 3-6, N-10)	98
–	96	12	–	CC(C)C[C@]1(C)NC(=O)[C@H](Cc2ccc3ccccc3c2)NC(=O)[C@H](Cc2ccc(OCCN)cc2)NC(=O)[C@@H]2CCNC(=O)CC[C@H](NC(=O)[C@H](CO)NC(=O)Cc3ccc(cc3)CNC(=O)CC[C@@H](C(=O)NCC[C@H](N)C(=O)N[C@@](C)(Cc3cccnc3)C(N)=O)NC1=O)C(=O)N[C@@H](Cc1c[nH]c3ccccc13)C(=O)N[C@@H](CCC(N)=O)C(=O)N2 [Compound 15, [4-Aminomethyl-phenylacetyl](1c)*SE(2c)WQ[Dab](2c)[Y(2-aminoethoxy)][2-Nal][2-Me-Leu]E(1c)[Iso-Dab][2-Me-3-(3-Pyridyl)-Ala]-[NH2]]	97
–	101	21	–	CC(C)C[C@]1(C)NC(=O)[C@H](Cc2ccc3ccccc3c2)NC(=O)[C@H](Cc2ccc(OCCN)cc2)NC(=O)[C@@H]2CCNC(=O)CC[C@H](NC(=O)[C@H](CO)NC(=O)Cc3ccc(cc3)CNC(=O)CC[C@@H](C(=O)N[C@@H](CCN)C(N)=O)NC1=O)C(=O)N[C@@H](Cc1c[nH]c3ccccc13)C(=O)N[C@@H](CCC(N)=O)C(=O)N2 [Ref 125, [4-Aminomethyl-phenylacetyl](1c)*SE(2c)WQ[Dab](2c)[Y(2-aminoethoxy)][2-Nal][2-Me-Leu]E(1c)[Dab]-[NH2], reference compound]	98
–	101	21	–	CC(C)C[C@]1(C)NC(=O)[C@H](Cc2ccc3ccccc3c2)NC(=O)[C@H](Cc2ccc(OCCN)cc2)NC(=O)[C@@H]2CSCC(=O)CSC[C@H](NC(=O)[C@H](CO)NC(=O)Cc3ccc(cc3)CNC(=O)CC[C@@H](C(=O)N[C@@H](CO)C(N)=O)NC1=O)C(=O)N[C@@H](Cc1c[nH]c3ccccc13)C(=O)N[C@@H](CCC(N)=O)C(=O)N2 [Ref 81, [4-Aminomethyl-phenylacetyl](1c)*SC(2a)WQC(2a)[Y(2-aminoethoxy)][2-Nal][2-Me-Leu]E(1c)S-[NH2], reference compound]	95
1.2	98	–	–	CC(C)C[C@]1(C)NC(=O)[C@H](Cc2ccc3ccccc3c2)NC(=O)[C@H](Cc2ccc(OCCN)cc2)NC(=O)[C@@H]2CCNC(=O)CC[C@H](NC(=O)[C@H](CO)NC(=O)Cc3ccc(cc3)CNC(=O)CC[C@@H](C(=O)NC[C@H](N[C@@H](Cc3cccnc3)C(N)=O)C(F)(F)F)NC1=O)C(=O)N[C@@H](Cc1c[nH]c3ccccc13)C(=O)N[C@@H](CCC(N)=O)C(=O)N2 [Compound 17, [4-Aminomethyl-phenylacetyl](1c)*SE(2c)WQ[Dab](2c)[Y(2-aminoethoxy)][2-Nal][2-Me-Leu]E(1c)[Gly-CF3][3-(3-Pyridyl)-Ala]-[NH2]]	–

More lines, now with the values behind:

Structure (SMILES)	IC50 (human IL-23R) [nM]	Emax (human IL-23R) [%]	IC50 [1, 2] [nM]	IC50 ([1]; EC80 of hIL-23, read-out: IC50 (pSTAT3)) [nM]	hIL-23 (pSTAT3) antagonist % inhibition [1] [%]
CNC(=O)[C@H](Cc1cccnc1)NC(=O)[C@H](CCN)NC(=O)[C@@H]1CCC(=O)NCc2ccc(cc2)CC(=O)N[C@@H](CO)C(=O)N[C@H]2CCC(=O)NCC[C@H](NC(=O)[C@H](Cc3ccccc3)NC(=O)[C@H](Cc3c[nH]c4ccccc34)NC2=O)C(=O)N[C@@H](Cc2ccc(OCCN)cc2)C(=O)N[C@@H](Cc2ccc3ccccc3c2)C(=O)N[C@@](C)(CC(C)C)C(=O)N1 [Compound 23, [4-Aminomethyl-phenylacetyl](1c)*SE(2c)WF[Dab](2c)[Y(2-aminoethoxy)][2-Nal][2-Me-Leu]E(1c)[Dab][3-(3-Pyridyl)-Ala]-[NHMe]] ([X1]SEWF[Dab][AEF][2Nal][αMeL]E[Dab][3Pal]-NHMe; lactam 3-6, N-10)	0.12	97	5.2	–	99
CC(C)C[C@]1(C)NC(=O)[C@H](Cc2ccc3ccccc3c2)NC(=O)[C@H](Cc2ccc(OCCN)cc2)NC(=O)[C@@H]2CSCC(=O)CSC[C@H](NC(=O)[C@H](CO)NC(=O)c3cccc(c3)CNC(=O)CC[C@@H](C(=O)N[C@H](CCCNC(=N)N)C(N)=O)NC1=O)C(=O)N[C@@H](Cc1c[nH]c3ccccc13)C(=O)N[C@@H](CCC(N)=O)C(=O)N2 [Ref 41, [(3-Aminomethyl)benzoyl](1c)*SC(2a)WQC(2a)[Y(2-aminoethoxy)][2-Nal][2-Me-Leu]E(1c)[{d}R]-[NH2], reference compound] ([3Amb]SCWQC[AEF][2Nal][αMeL]E[dR]-NH2; linker 3-6 via CH2COCH2; lactam N-10)	–	110	29	–	99
CC(C)C[C@]1(C)NC(=O)[C@H](Cc2ccc3ccccc3c2)NC(=O)[C@H](Cc2ccc(OCCN)cc2)NC(=O)[C@@H]2CCNC(=O)CC[C@H](NC(=O)[C@H](CO)NC(=O)Cc3ccc(cc3)CNC(=O)CC[C@@H](C(=O)N[C@@H](CCN)C(=O)N[C@@H](Cc3cccnc3)C(=O)N[C@H](Cc3c[nH]cn3)C(N)=O)NC1=O)C(=O)N[C@@H](Cc1c[nH]c3ccccc13)C(=O)N[C@@H](CCC(N)=O)C(=O)N2 [Compound 10, [4-Aminomethyl-phenylacetyl](1c)*SE(2c)WQ[Dab](2c)[Y(2-aminoethoxy)][2-Nal][2-Me-Leu]E(1c)[Dab][3-(3-Pyridyl)-Ala][{d}H]-[NH2]] ([X1]SEWQ[Dab][AEF][2Nal][αMeL]E[Dab][3Pal][dH]-NH2; lactam 3-6, N-10)	–	91	0.038	0.038	99
CNC(=O)[C@H](Cc1cccnc1)NC(=O)[C@H](CCN)NC(=O)[C@@H]1CCC(=O)NCc2ccc(cc2)CC(=O)N[C@@H](C)C(=O)N[C@H]2CCC(=O)NCC[C@H](NC(=O)[C@H](CCC(N)=O)NC(=O)[C@H](Cc3c[nH]c4ccccc34)NC2=O)C(=O)N[C@@H](Cc2ccc(N3CCOCC3)cc2)C(=O)N[C@@H](Cc2ccc3ccccc3c2)C(=O)NC(C)(C)C(=O)N1 [Compound 51, [4-aminomethyl-phenylacetyl](1c)*AE(2c)WQ[Dab](2c)[F(4-morpholine)][2Nal][Aib]E(1c)[Dab][3-(3-Pyridyl)-alanyl]-[NHMe]]	0.073	105	0.38	–	96
CNC(=O)[C@H](Cc1cccnc1)NC(=O)[C@H](CCN)NC(=O)[C@@H]1CCC(=O)NCc2ccc(cc2)CC(=O)N[C@@H](C)C(=O)N[C@H]2CCC(=O)NCC[C@H](NC(=O)[C@H](CCC(N)=O)NC(=O)[C@H](Cc3c[nH]c4ccccc34)NC2=O)C(=O)N[C@@H](Cc2ccc(OCCN)cc2)C(=O)N[C@@H](CC2CC2)C(=O)NC(C)(C)C(=O)N1 [Compound 42, [4-Aminomethyl-phenylacetyl](1c)*AE(2c)WQ[Dab](2c)[Y(2-aminoethoxy)][Cyclopropyl-Ala][Aib]E(1c)[Dab][3-(3-Pyridyl)-Ala]-[NHMe]]	12	100	–	–	–
